How the values were obtained:
[1] = test system: human fibroblasts; assay: Anti-UVA cytophotoprotection test on human fibroblasts; assay type: cell-based; conditions: UV-A 15 J/cm^2
Description: d) Anti-UVA-Cytophotoprotection Test on Human Fibroblasts
This in vitro test evaluates the ability of Lannea coromandelica extracts according to the invention to afford human fibroblasts cytophotoprotection against UV-A.
The UV-As are selected as a study model because they penetrate into the inner skin and introduce an oxidizing stress into the skin which is reflected in particular in a lipoperoxidation of the cytoplasmic membrane. The lipoperoxides formed split up into malonaldialdehydes (MDAs) which are responsible for the crosslinking of numerous biological molecules, such as proteins for example (enzyme inhibition), and nuclein bases (mutagenesis).
Fibroblasts are inoculated into a nutrient medium defined with calf foetus serum. The Lannea coromandelica extract was added 2 to 3 days after inoculation. After incubation for 2 to 3 days at 37° C./CO2=5%, the nutrient medium is replaced by a salt solution and the fibroblasts are exposed to a dose of UV-A (15 J/cm^2).
After the exposure, the MDA level in the salt solution floating on the surface is determined and the protein level in the fibroblasts is measured. The MDA level is determined by reaction to thiobarbituric acid while the protein levels are determined by the Bradford method.

[2] = test system: B16 melanocytes; assay: In vitro melanogenesis inhibition test on B16 melanocytes; assay type: cell-based; conditions: 0.3% dose
Procedure: In Vitro Melanogenesis Inhibition Test on B16 Melanocytes inoculation of the melanocytes into a growth substrate, incubation for three days at 37° C., CO2=5%, introduction of the Lannea coromandelica extracts into a medium which activates melanogenesis, […]
spectrophotometric dosing of the proteins (co-called Bradford method) and the melanin (DO at 475 nm) into the homogenized melanocytes, calculation of an activity index which corresponds to the ratio (protein level/melanin level) for an optimal dose of extract.
It follows that the higher the index (>1), the greater the ability to inhibit melanogensis.

[3] = target: T1, elastase of the abdominal salivary gland (serine protease) (Sus scrofa, UniProt P00772); assay: In tubo antielastase test, synthetic chromogenic substrate; assay type: biochemical
Procedure: (§1) The in tubo tests are carried out with an elastase of the abdominal salivary gland (serine protease) using two types of substrate: a synthetic color-forming (chromogenic) substrate and a natural substrate consisting of elastin connected with Congo red.
(§2) Incubation lasts 30 minutes at room temperature and coloration is measured at 410 nm and 520 nm.
(§3) The inhibition test standard tested for comparison is 1 antitrypsin.

[4] = target: T1, elastase of the abdominal salivary gland (serine protease); assay: In tubo antielastase test, elastin connected with Congo red; assay type: biochemical
Procedure: as §1, §2, §3

[5] = test system: clostridium hystoliticum collagenase; assay: In tubo anticollagenase test (FALGPA substrate); assay type: biochemical
Procedure: b) In Tubo Anticollagenase Test
The tests are carried out with a clostridium hystoliticum collagenase and a synthetic chromogenic substrate: FALGPA. Incubation lasts 3O minutes at room temperature and optical density is measured at 324 nm. The inhibition test standard tested for comparison is cysteine.
The results are set out in Table X below which emphasizes the anticollagenase activity of the Lannea coromandelica extracts (results in percentage inhibition).

[6] = test system: tyrosinase; assay: In tubo tyrosinase inhibition test (L-DOPA, dopachromium DO at 475 nm); assay type: biochemical; conditions: extract concentration producing 50% inhibition of the enzyme activity
Description: In Tubo Tyrosinase Inhibition Test mixing of the L-DOPA with tyrosinase and the Lannea coromandelica extracts to be tested, recording of the DO at 475 nm of the dopachromium, calculation of the kinetics, then the CI50 (extract concentration which produces a 50% inhibition of the enzyme activity).

[7] = Anti-DPPH° test (anti-radical effect); conditions: for level of leuco compound formed (in % in relation to the control): average of 2 tests
Description: a) DPPH° Test DPPH (diphenyl picryl hydrazyl) is a stable, free, violet-colored radical which is modified in its leuco compound by the substances that trap the free radicals (=scavenger or bait effect). The result is expressed in leuco compound levels which are formed in the presence of the active agent (in % in relation to the control with no active principle).

[8] = Anti-anion superoxide test (hypoxanthine/xanthine oxidase) with luminol + microperoxidase; assay type: biochemical; conditions: for percentage inhibition, test with luminol + microperoxidase: average of 2 tests
Description: (§4) *Anti-Anion Superoxide Effect (O2.^−) O2.^− is produced during the oxidizing stress through the introduction of an enzyme, xanthine oxidase (XOD), which degrades the excess hypoxanthine (HX) during an interruption in or disruption of the energy metabolism in living tissue. O2.^− is toxic, particularly because of its ability to form hydrogen peroxide (H2O2)—which in turn forms a source of HO^• through the Fenton reaction—either spontaneously or in the presence of Superoxid-Dismutase (SOD). The biochemical tests are carried out with HX in the presence of XOD and the O2.^− are exposed by luminol or a mixture of luminol and peroxidase, which exposes O2.^− and H2O2, or by a tetrazolium salt (NBT) which forms a red compound evaluated at 540 nm.

[9] = Anti-anion superoxide test (hypoxanthine/xanthine oxidase) with luminol; assay type: biochemical; conditions: for percentage inhibition, test with luminol: average of 2 tests
Description: as §4

[10] = Anti-HO° test with deoxyribose (Fenton reaction) without EDTA; conditions: for percentage inhibition of the hydroxylation rate: average of 2 tests
Procedure: (§5) Anti-HO°-Test with Deoxyribose (Fenton Reaction) These tests evaluate the ability of an active substance to eliminate (“bait”) HO° produced by the Fenton reaction (H2O2 in the presence of iron). HO° can be exposed by deoxyribose. Deoxyribose is an essential compound of ADN which is oxidized and then fragmented by HO°. The oxidation product of deoxyribose is exposed by condensation with thiobarbituric acid (measurement of optical density at 532 nm). This test is carried out with and without EDTA in order to determine the ability of the extract to form active complex compounds with iron (“[…] effect”).

[11] = Anti-HO° test with deoxyribose (Fenton reaction) with EDTA; conditions: for percentage inhibition of the hydroxylation rate: average of 2 tests
Procedure: as §5

[12] = Anti-anion superoxide test (hypoxanthine/xanthine oxidase) with NBT; assay type: biochemical; conditions: for percentage inhibition, test with NBT: average of 2 tests
Description: as §4

[13] = test system: singlet oxygen on type I collagen; assay: Anti-singlet oxygen effect on type I collagen (viscosity, riboflavin + UV-A)
Description: Collagen is a dermal glycoprotein which is very sensitive to the activity of the reactive form of oxygen (or FRO). It was shown that singlet oxygen (O2^1) produces troublesome crosslinkings among the proteins.
The principle of this test is based on measurement of the viscosity of an aqueous solution of type I collagen in the presence of a photochemical O2^1-evolving system.
O2^1, which is produced by riboflavin in the presence of UV-A, causes the collagen to gel in the presence of glucose which is reflected in an increase in viscosity. This effect is inhibited by the molecules which expose O2^1, such as thiourea or aminoguanidine for example.
Viscosity is evaluated by measurement of the throughflow time through the capillary of a “Cannon Fenske” viscosimeter.

T1 sequence (P00772 27-266): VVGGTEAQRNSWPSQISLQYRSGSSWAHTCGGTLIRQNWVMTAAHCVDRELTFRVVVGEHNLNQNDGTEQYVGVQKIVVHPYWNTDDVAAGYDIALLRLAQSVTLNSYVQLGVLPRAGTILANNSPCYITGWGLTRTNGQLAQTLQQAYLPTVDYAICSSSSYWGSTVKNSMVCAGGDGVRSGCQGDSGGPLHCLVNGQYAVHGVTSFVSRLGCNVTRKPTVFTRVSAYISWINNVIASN

## Vitamin E
[1]; 0.0003%
  MDA level in % in relation to the irradiated control: 21%
  Proteins in % in relation to the non-irradiated control: 97%
[1]; 0.001%
  MDA level in % in relation to the irradiated control: 8%
  Proteins in % in relation to the non-irradiated control: 98%

## OC[C@H]1O[C@@H](Oc2ccc(O)cc2)[C@H](O)[C@@H](O)[C@@H]1O [Arbutin]
[2]
  I = activity index on B16 melanocytes (protein level/melanin level): I = 3.14 (for the 0.3% dose)

## 1α antitrypsin: inhibition test standard tested for comparison in the antielastase test
[3]
  Cl50 antielastase, synthetic substrate: NB: Cl50 in % by wt./vol. for 1α antitrypsin = 0.04%
[4]
  Cl50 antielastase, elastin connected with Congo red: NB: Cl50 in % by wt./vol. for 1α antitrypsin = 0.04%

## N[C@@H](CS)C(=O)O [cysteine]
[5]
  Cl50 anticollagenase: NB: Cl50 in % by wt./vol. of cysteine = 2.4%

## Oc1ccc(O)cc1 [Hydroquinone]
[6]
  Cl50 in tubo tyrosinase inhibition: Cl50 = 0.025% by wt./vol.

## O=C1O[C@H]([C@@H](O)CO)C(O)=C1O [Ascorbic acid]
[7]
  Cl50 anti-DPPH° test: 0.0013 % (wt./vol.)
[7]; dose 0.001% (wt./vol.)
  level of leuco compound formed (in % in relation to the control): 49%
[7]; dose 0.01% (wt./vol.)
  level of leuco compound formed (in % in relation to the control): 75%
[8]
  Cl50 test with luminol + microperoxidase: 0.0058 % (wt./vol.)
[8]; dose 0.001% (wt./vol.)
  percentage inhibition, test with luminol + microperoxidase: 0%
[8]; dose 0.01% (wt./vol.)
  percentage inhibition, test with luminol + microperoxidase: 94%
[9]
  Cl50 test with luminol: 0.0006 % (wt./vol.)
[9]; dose 0.0001% (wt./vol.)
  percentage inhibition, test with luminol: 5%
[9]; dose 0.001% (wt./vol.)
  percentage inhibition, test with luminol: 92%
[9]; dose 0.01% (wt./vol.)
  percentage inhibition, test with luminol: 100%
[10]
  Cl50 Fenton reaction without EDTA: 0.9 % (wt./vol.)
[10]; dose 0.01% (wt./vol.)
  percentage inhibition of the hydroxylation rate: 5%
[10]; dose 0.03% (wt./vol.)
  percentage inhibition of the hydroxylation rate: 75%
[10]; dose 0.1% (wt./vol.)
  percentage inhibition of the hydroxylation rate: 2%
[10]; dose 1% (wt./vol.)
  percentage inhibition of the hydroxylation rate: 56%
[11]
  Cl50 Fenton reaction with EDTA: 0.26 % (wt./vol.)
[11]; dose 0.1% (wt./vol.)
  percentage inhibition of the hydroxylation rate: 45%
[11]; dose 1% (wt./vol.)
  percentage inhibition of the hydroxylation rate: 73%
[12]
  Cl50 test with NBT: 0.5909 % (wt./vol.)
[12]; dose 0.01% (wt./vol.)
  percentage inhibition, test with NBT: 15%
[12]; dose 0.1% (wt./vol.)
  percentage inhibition, test with NBT: 32%
[12]; dose I % (wt./vol.)
  percentage inhibition, test with NBT: 65%

## N=C(N)NN [Aminoguanidine, aminoguanidine]
[13]
  Cl50 photoprotection of type I collagen: 0.004 % (wt./vol.)
[13]; dose 0.005% (wt./vol.)
  photoprotective effect on type I collagen, percentage inhibition: 57%
[13]; dose 0.015% (wt./vol.)
  photoprotective effect on type I collagen, percentage inhibition: 75%

Source: patent US20040018259A1, “Use of at least one extract of a plant of the genus lannea in a cosmetic or dermopharmaceutical composition” (priority 1999, published 2004)
